Assay results published in patent US6610677B2, “Pyrazole compounds useful as protein kinase inhibitors” (Vertex Pharmaceuticals Incorporated, priority 2000, dated 2003).

Key:
GSK-3β (AA 1-420) = biological target: T1, GSK-3β (AA 1-420) (Homo sapiens, UniProt P49841); test: Ki determination for the inhibition of GSK-3 (coupled enzyme system); assay type: biochemical; details: 20 μM ATP, 300 μM peptide, 20 nM GSK-3β, 30° C
T1 construct: GSK-3β (AA 1-420)
Summary of the method: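 Ki values come from reaction rates over 10 min at 30 °C as a function of inhibitor concentration (12-point titration, 0.002–30 μM, 10 min preincubation). GSK-3β (AA 1-420, 20 nM) phosphorylated 300 μM primed peptide with 20 μM ATP; ADP formation followed by coupled NADH oxidation, pH 7.5.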

human Src kinase = biological target: T2, human Src kinase (Homo sapiens, UniProt P12931); test: SRC inhibition assay (radioactivity-based or spectrophotometric assay); assay type: biochemical; details: assay A or B not specified; read-out: Ki value on SRC
T2 construct: full length recombinant human Src kinase; purchased Upstate Biotechnology 14-117; host or cells: baculo viral cells (baculovirus expression system)
Protocol: The compounds were evaluated as inhibitors of human Src kinase using either a radioactivity-based assay or spectrophotometric assay. The compounds were assayed as inhibitors of full length recombinant human Src kinase (from Upstate Biotechnology, cat. no. 14-117) expressed and purified from baculo viral cells. […] P-0275). […] In a typical assay, all the reaction components with the exception of ATP were pre-mixed and aliquoted into assay plate wells. Inhibitors dissolved in DMSO were added to the wells to give a final DMSO concentration of 2.5%. The assay plate was incubated at 30° C. for 10 min before initiating the reaction with ^33P-ATP. After 20 min of reaction, the reactions were quenched with 150 μl of 10% trichloroacetic acid (TCA) containing 20 mM Na3PO4. The quenched samples were then transferred to a 96-well filter plate (Whatman, UNI-Filter GF/F Glass Fiber Filter, cat no. 7700-3310) installed on a filter plate vacuum manifold. Filter plates were washed four times with 10% TCA containing 20 mM Na3PO4 and then 4 times with methanol. 200 μl of scintillation fluid was then added to each well. The plates were sealed and the amount of radioactivity associated with the filters was quantified on a TopCount scintillation counter. The radioactivity incorporated was plotted as a function of the inhibitor concentration. The data was fitted to a competitive inhibition kinetics model to get the Ki for the compound. The ADP produced from ATP by the human recombinant Src kinase-catalyzed phosphorylation of poly Glu-Tyr substrate was quanitified using a coupled enzyme assay (Fox et al (1998) Protein Sci 7, 2249). In this assay one molecule of NADH is oxidised to NAD for every molecule of ADP produced in the kinase reaction. The disappearance of NADH can be conveniently followed at 340 nm. […] In a typical assay, all the reaction components with the exception of ATP were pre-mixed and aliquoted into assay plate wells. Inhibitors dissolved in DMSO were added to the wells to give a final DMSO concentration of 2.5%. […] The absorbance change at 340 nm with time, the rate of the reaction, was monitored on a molecular devices plate reader. The data of rate as a function of the inhibitor concentration was fitted to compettive inhibition kinetics model to get the Ki for the compound.

activated ERK2 = activated ERK2 (Homo sapiens, UniProt P28482); test: ERK inhibition assay (spectrophotometric coupled-enzyme assay); assay type: biochemical; details: 10 nM activated ERK2, 65 μM ATP, 200 μM erktide; read-out: Ki value for ERK-2
Protocol: Compounds were assayed for the inhibition of ERK2 by a spectrophotometric coupled-enzyme assay (Fox et al (1998) Protein Sci 7, 2249). In this assay, a fixed concentration of activated ERK2 (10 nM) was incubated with various concentrations of the compound in DMSO (2.5%) for 10 min. at 30° C. in 0.1 M HEPES buffer, pH 7.5, containing 10 mM MgCl2, 2.5 mM phosphoenolpyruvate, 200 μM NADH, 150 μg/mL pyruvate kinase, 50 μg/mL lactate dehydrogenase, and 200 μM erktide peptide. The reaction was initiated by the addition of 65 μM ATP. The rate of decrease of absorbance at […] was monitored. The IC50 was evaluated from the rate data as a function of inhibitor concentration.

Aurora-2 = biological target: T3, Aurora-2 (Homo sapiens, UniProt O14965); test: Ki determination for the inhibition of Aurora-2 (coupled enzyme assay); assay type: biochemical; details: 70 nM Aurora-2, peptide LRRASLG, 30° C
T3 sequence (O14965 1-403): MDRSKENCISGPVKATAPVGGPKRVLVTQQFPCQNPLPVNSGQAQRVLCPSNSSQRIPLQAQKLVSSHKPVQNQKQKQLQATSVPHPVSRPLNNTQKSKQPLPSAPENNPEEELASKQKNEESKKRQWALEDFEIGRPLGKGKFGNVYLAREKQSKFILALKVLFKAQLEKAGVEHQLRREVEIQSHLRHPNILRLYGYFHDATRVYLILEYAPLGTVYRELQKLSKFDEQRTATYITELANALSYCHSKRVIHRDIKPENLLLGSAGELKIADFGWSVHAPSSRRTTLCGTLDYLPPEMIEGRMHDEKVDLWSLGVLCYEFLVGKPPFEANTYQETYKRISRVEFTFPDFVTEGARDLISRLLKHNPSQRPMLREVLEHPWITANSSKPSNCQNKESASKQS
Summary of the method: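 Ki came from reaction rates plotted against inhibitor concentration, with rates taken as A340 decrease over 5 min at 30° C. Enzyme (70 nM final) was added after 10 min compound preincubation; stock buffer held […], 800 μM LRRASLG, PK/LDH coupling, pH 7.5.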

T1 sequence (P49841 whole entry, the tested form may be a part): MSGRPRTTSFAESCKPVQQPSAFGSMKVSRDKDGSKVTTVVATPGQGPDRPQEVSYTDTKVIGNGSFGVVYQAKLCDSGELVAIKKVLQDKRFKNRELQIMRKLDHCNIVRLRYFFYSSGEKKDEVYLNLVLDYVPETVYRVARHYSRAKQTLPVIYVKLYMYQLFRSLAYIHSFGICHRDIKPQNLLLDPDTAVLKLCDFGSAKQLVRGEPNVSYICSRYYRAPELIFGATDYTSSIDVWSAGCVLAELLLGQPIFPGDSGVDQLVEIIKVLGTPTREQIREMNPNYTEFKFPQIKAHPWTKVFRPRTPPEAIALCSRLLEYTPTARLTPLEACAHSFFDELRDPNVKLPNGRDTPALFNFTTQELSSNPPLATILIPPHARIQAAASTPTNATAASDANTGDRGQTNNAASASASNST
T2 sequence (P12931 whole entry): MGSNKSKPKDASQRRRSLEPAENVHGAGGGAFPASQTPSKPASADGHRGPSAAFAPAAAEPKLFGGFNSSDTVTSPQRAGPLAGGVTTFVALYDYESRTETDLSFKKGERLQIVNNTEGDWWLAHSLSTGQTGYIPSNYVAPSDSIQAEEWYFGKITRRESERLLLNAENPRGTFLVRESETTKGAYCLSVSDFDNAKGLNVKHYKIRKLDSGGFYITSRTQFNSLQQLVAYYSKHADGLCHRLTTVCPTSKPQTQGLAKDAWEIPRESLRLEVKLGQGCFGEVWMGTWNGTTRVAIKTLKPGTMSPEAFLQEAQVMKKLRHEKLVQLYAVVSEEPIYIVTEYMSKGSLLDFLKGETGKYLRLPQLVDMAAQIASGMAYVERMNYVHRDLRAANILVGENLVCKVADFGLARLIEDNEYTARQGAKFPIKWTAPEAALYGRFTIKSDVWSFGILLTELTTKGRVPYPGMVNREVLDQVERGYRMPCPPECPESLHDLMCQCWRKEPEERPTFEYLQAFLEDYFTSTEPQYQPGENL
Sequence of activated ERK2 (P28482 whole entry): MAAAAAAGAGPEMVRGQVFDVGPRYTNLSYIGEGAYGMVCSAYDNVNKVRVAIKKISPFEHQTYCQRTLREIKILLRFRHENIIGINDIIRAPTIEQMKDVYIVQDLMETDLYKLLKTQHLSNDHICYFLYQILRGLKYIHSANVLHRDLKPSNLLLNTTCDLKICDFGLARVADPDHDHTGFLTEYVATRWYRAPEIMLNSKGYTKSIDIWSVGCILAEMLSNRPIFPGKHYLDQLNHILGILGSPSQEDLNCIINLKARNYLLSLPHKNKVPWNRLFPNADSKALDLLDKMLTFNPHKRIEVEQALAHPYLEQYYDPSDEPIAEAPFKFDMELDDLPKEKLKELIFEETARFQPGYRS

In the case of c1ccc(-c2nc(Nc3cc(C4CC4)n[nH]3)c3ccccc3n2)cc1 [III-40, (5-Cyclopropyl-2H-pyrazol-3-yl)-(2-phenyl-quinazolin-4-yl)-amine], the Ki (GSK-3β (AA 1-420)) is reported as < 0.1 µM, the melting point is reported as 218 to 219 °C and the Ki (human Src kinase) is reported as < 0.1 µM. For the same compound, the Ki (activated ERK2) was 1 to 12 µM and the Ki (Aurora-2) was < 0.1 µM.

For c1ccc(-c2nc(Nc3ccn[nH]3)c3ccccc3n2)cc1 [III-63, (2-Phenyl-quinazolin-4-yl)-(2H-pyrazol-3-yl)-amine], the Ki (GSK-3β (AA 1-420)) was < 0.1 µM, the melting point was 247 to 249 °C and the Ki (activated ERK2) was 1 to 12 µM. For the same compound, the Ki (Aurora-2) was < 0.1 µM.

With CCc1cc(Nc2nc(-c3ccccc3)nc3ccccc23)[nH]n1 [III-65] the Ki (GSK-3β (AA 1-420)) was < 0.1 µM, the melting point was 221 to 222 °C and the Ki (human Src kinase) was < 0.1 µM. For the same compound, the Ki (Aurora-2) was < 0.1 µM.

With CCCc1cc(Nc2nc(-c3ccccc3)nc3ccccc23)[nH]n1 [III-66, (2-Phenyl-quinazolin-4-yl)-(5-propyl-2H-pyrazol-3-yl)-amine] the Ki (GSK-3β (AA 1-420)) was < 0.1 µM, the melting point was 204 to 205 °C and the Ki (human Src kinase) was < 0.1 µM. For the same compound, the Ki (Aurora-2) was < 0.1 µM.

In the case of c1ccc(-c2nc(Nc3cc(C4CCCC4)n[nH]3)c3ccccc3n2)cc1 [III-70, (5-Cyclopentyl-2H-pyrazol-3-yl)-(2-phenyl-quinazolin-4-yl)-amine], the Ki (GSK-3β (AA 1-420)) is reported as < 0.1 µM, the melting point is reported as 240 to 241 °C and the Ki (human Src kinase) is reported as < 0.1 µM. For the same compound, the Ki (Aurora-2) was < 0.1 µM.

For OCCCc1cc(Nc2nc(-c3ccccc3)nc3ccccc23)[nH]n1 [III-76, [5-(3-Hydroxyprop-1-yl)-2H-pyrazol-3-yl]-(2-phenyl-quinazolin-4-yl)-amine], the Ki (GSK-3β (AA 1-420)) was < 0.1 µM, the melting point was 164 to 165 °C and the Ki (human Src kinase) was < 0.1 µM. The Ki (Aurora-2) was < 0.1 µM.

For c1ccc(COCCCc2cc(Nc3nc(-c4ccccc4)nc4ccccc34)[nH]n2)cc1 [III-78, [5-(3-Benzyloxyprop-1-yl)-2H-pyrazol-3-yl]-(2-phenyl-quinazolin-4-yl)-amine], the Ki (GSK-3β (AA 1-420)) was 0.1 to 1 µM, the melting point was 177 to 178 °C and the Ki (human Src kinase) was < 0.1 µM. For the same compound, the Ki (Aurora-2) was < 0.1 µM.

With Cc1cc(Nc2nc(N3CCCCC3)nc3ccccc23)[nH]n1 [III-108, (5-Methyl-2H-pyrazol-3-yl)-(2-piperidin-1-yl-quinazolin-4-yl)-amine] the Ki (GSK-3β (AA 1-420)) was < 0.1 µM, the melting point was 294 °C and the Ki (activated ERK2) was 1 to 12 µM. For the same compound, the Ki (Aurora-2) was < 0.1 µM.

For Cc1cc(Nc2nc(N3CCCCCC3)nc3ccccc23)[nH]n1 [III-109], the Ki (GSK-3β (AA 1-420)) was < 0.1 µM, the melting point was 269 °C and the Ki (activated ERK2) was < 1 µM. For the same compound, the Ki (Aurora-2) was < 0.1 µM.

In the case of CC1CCN(c2nc(Nc3cc(C4CC4)n[nH]3)c3ccccc3n2)CC1 [III-111, (5-Cyclopropyl-2H-pyrazol-3-yl)-[2-(4-methylpiperidin-1-yl)-quinazolin-4-yl]-amine], the Ki (GSK-3β (AA 1-420)) is reported as < 0.1 µM, the Ki (activated ERK2) is reported as < 1 µM and the Ki (Aurora-2) is reported as < 0.1 µM.

For OC1(c2ccccc2)CCN(c2nc(Nc3cc(C4CC4)n[nH]3)c3ccccc3n2)CC1 [III-115, (5-Cyclopropyl-2H-pyrazol-3-yl)-[2-(4-hydroxy-4-phenylpiperidin-1-yl)-quinazolin-4-yl]-amine], the Ki (GSK-3β (AA 1-420)) was 0.1 to 1 µM, the melting point was 131 °C and the Ki (activated ERK2) was < 1 µM. For the same compound, the Ki (Aurora-2) was < 0.1 µM.

In the case of c1ccc2c(Nc3cc(C4CC4)n[nH]3)nc(N3CCCCCC3)nc2c1 [III-117], the Ki (GSK-3β (AA 1-420)) is reported as < 0.1 µM, the melting point is reported as 199 to 200 °C and the Ki (activated ERK2) is reported as < 1 µM. The Ki (Aurora-2) was < 0.1 µM.

In the case of c1ccc2c(c1)CCN(c1nc(Nc3cc(C4CC4)n[nH]3)c3ccccc3n1)C2 [III-118, (5-Cyclopropyl-2H-pyrazol-3-yl)-[2-(3,4-dihydro-1H-isoquinolin-2-yl)-quinazolin-4-yl]-amine], the Ki (GSK-3β (AA 1-420)) is reported as < 0.1 µM, the melting point is reported as 182 to 184 °C and the Ki (activated ERK2) is reported as < 1 µM. The Ki (Aurora-2) was < 0.1 µM.

For OCC1CCN(c2nc(Nc3cc(C4CC4)n[nH]3)c3ccccc3n2)CC1 [III-120, (5-Cyclopropyl-2H-pyrazol-3-yl)-[2-(4-hydroxymethylpiperidin-1-yl)-quinazolin-4-yl]-amine], the Ki (GSK-3β (AA 1-420)) was < 0.1 µM, the melting point was 142 °C and the Ki (activated ERK2) was < 1 µM. For the same compound, the Ki (Aurora-2) was < 0.1 µM.
